How the values were obtained:
[1] = system: ganglion cells; details: rat retina explant model, White et al (2015); cited from earlier work
[2] = system: patients; details: patients treated chronically; cited from earlier work
[3] = Description: The absorption and biological stability tests were performed with solutions of the peptide-cyclodextrin inclusion compound. To carry out the experiments, 12 normal Wistar rats were used, which had previously cannulated the left femoral artery. […] Four blood draws (1 mL) were carried out, being the first prior to gavage, and the three others within 2, 6 and 24 hours after gavage
[4] = system: rats; details: free (non-encapsulated) peptide, RVLB microinjection, 25-50 ng, previous studies; cited from earlier work
[5] = biological target: ACE (Homo sapiens, UniProt P12821); details: read-out: IC50 for inhibiting ACE; cited from earlier work
[6] = Long-term and accelerated stability study of raw material; format: physicochemical
Description: Stability is defined as the time during which pharmaceutical expertise or even raw material considered alone is maintained within specified limits and throughout the period of storage and use, the same conditions and characteristics that had upon the time of their manufacture.
Stability study was carried out in two conditions, the condition A being at 5° C.±3° C. with no humidity and condition B 25° C.±2° C. with the relative humidity of 60%±5%.

ACE, sequence (P12821 30-1306, species assumed): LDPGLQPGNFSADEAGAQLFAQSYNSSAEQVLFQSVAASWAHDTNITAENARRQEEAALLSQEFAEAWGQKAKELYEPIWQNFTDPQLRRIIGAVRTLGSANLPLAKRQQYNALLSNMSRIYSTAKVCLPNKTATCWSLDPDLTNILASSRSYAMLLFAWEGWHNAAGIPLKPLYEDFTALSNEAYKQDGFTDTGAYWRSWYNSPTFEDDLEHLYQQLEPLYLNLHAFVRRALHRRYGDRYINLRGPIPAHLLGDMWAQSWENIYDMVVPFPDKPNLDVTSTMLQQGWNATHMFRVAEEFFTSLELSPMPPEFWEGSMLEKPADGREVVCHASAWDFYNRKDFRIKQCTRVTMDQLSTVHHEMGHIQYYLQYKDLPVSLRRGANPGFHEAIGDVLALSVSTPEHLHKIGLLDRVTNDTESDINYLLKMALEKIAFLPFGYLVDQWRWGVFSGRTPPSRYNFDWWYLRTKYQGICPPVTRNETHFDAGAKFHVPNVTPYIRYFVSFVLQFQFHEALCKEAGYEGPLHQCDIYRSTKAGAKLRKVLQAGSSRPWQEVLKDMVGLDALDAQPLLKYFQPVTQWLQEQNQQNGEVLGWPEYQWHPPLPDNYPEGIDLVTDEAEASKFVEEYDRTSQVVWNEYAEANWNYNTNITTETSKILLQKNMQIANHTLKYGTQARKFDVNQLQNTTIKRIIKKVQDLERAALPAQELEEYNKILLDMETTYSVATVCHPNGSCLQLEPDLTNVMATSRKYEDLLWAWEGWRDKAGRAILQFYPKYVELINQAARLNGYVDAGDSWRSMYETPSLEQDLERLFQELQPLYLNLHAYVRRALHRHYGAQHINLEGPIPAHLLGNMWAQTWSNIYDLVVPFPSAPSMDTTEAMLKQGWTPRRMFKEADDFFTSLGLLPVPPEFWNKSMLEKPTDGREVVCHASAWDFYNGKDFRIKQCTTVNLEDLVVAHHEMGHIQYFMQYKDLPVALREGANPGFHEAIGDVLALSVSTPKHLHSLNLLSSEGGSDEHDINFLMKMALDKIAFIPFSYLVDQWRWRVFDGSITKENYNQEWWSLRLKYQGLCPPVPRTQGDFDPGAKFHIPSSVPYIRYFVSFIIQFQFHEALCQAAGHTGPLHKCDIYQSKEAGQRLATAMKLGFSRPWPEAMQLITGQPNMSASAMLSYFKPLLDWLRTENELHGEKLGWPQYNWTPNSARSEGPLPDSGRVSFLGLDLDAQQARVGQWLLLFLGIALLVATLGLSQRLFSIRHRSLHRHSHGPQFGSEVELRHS

CCCCC1=NC2(CCCC2)C(=O)N1Cc1ccc(-c2ccccc2-c2nnn[nH]2)cc1 [irbesartan]
survival of ganglion cells [1]: doubled

CCC[C@H](N[C@@H](C)C(=O)N1[C@H](C(=O)O)C[C@@H]2CCCC[C@@H]21)C(=O)OCC [perindopril]
reduction of the risk of dementia [2]: 34%

CCOC(=O)[C@H](CCc1ccccc1)N[C@@H](C)C(=O)N1CCC[C@H]1C(=O)O [enalapril]
reduction of the risk of dementia [2]: 55%

CC[C@H](C)[C@H](NC(=O)[C@H](Cc1ccc(O)cc1)NC(=O)[C@@H](NC(=O)[C@H](CCCNC(=N)N)NC(=O)[C@@H](N)CC(=O)O)C(C)C)C(=O)N[C@@H](Cc1c[nH]cn1)C(=O)N1CCC[C@H]1C(=O)O [SEQ ID NO: 1, Asp-Arg-Val-Tyr-Ile-His-Pro]
increase in plasma concentration, times less than with SEQ ID NO: 1 βcyclodextrin ([3]; 6 hours after gavage): about 8 times | level at 6 h ([3]; rat, in vivo, po, 10 ug/50 ul): 0.086 ± 0.013 ng/mL | duration of pressor effect [4]: approximately 10 min | increase in arterial pressure [4]: 15 mmHg | IC50 [5]: ~1 µM | time for which the raw material is stable, long-term condition ([6]; 5° C.±3° C., no humidity): 36 months | time for which the raw material is stable, accelerated condition ([6]; 25° C.±2° C., 60% relative humidity): 6 months

Angiotensin II
reduction of survival of ganglion cells [1]: 40%

— patent publication US20190328828A1, “PHARMACEUTICAL COMPOSITION, PROCESS FOR PRODUCING THE SAME, USE OF A PEPTIDE, USE OF A PHARMACEUTICAL COMPOSITION AND METHOD FOR TREATING DISEASES ASSOCIATED WITH INTRAOCULAR HYPERTENSION OR GLAUCOMA” (UNIAO QUIMICA FARMACEUTICA NACIONAL S/A, priority 2017, published 2019)
